In patent US20250320206A1, “STAT6 DEGRADERS” (Gilead Sciences, Inc., priority 2024, published 2025):

How the values were obtained:
STAT6 = target: T1, STAT6 (Homo sapiens, UniProt P42226); test: Stat6 Degrader Assay (HiBiT based, HeLa LgBiT clone 4.14); format: cell-based; conditions: HeLa LgBiT clone 4.14 HiBiT-STAT6, 4-24 h incubation; values given for compounds with >80% Emax; geometric mean; read-out: STAT6 degradation DC50
T1 construct: These cells express endogenous STAT6; host or cells: HeLa LgBiT clone 4.14
T1 sequence (P42226 1-847): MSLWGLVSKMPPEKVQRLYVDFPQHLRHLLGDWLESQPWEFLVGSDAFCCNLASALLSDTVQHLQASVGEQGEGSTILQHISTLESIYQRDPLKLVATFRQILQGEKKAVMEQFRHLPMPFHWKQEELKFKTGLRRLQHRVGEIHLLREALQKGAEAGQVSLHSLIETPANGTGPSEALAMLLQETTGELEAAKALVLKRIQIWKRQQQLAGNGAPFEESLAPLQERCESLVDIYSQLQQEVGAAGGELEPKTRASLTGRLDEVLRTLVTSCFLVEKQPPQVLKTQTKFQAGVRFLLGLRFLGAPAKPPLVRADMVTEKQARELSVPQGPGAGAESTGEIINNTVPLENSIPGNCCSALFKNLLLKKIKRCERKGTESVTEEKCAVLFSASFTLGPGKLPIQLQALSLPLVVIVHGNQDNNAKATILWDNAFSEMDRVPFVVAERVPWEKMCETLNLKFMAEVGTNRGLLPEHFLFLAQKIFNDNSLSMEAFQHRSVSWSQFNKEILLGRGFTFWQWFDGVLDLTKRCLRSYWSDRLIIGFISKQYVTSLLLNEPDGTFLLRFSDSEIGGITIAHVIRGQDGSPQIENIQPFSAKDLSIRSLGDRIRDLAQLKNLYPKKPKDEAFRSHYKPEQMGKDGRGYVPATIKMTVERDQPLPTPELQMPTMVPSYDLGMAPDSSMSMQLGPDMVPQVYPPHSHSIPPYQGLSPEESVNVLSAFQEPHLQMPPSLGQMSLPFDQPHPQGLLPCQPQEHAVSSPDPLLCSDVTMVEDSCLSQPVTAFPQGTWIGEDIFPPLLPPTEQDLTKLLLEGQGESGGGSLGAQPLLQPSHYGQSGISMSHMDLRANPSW
How it was run: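 Luminescence from HiBiT-STAT6 complementing stably expressed LgBiT in HeLa clone 4.14 reports remaining STAT6 protein. Cells (5000/well) exposed to compound for 4-24 h at 37° C; read 0.5 h after Nano-Glo addition. 100% degradation window set with 50 μM terfenadine; percent degradation plotted against concentration.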

[1] = tested on: Eotaxin-3 release in human whole blood stimulated with IL-4; test: Human Whole Blood Eotaxin-3 Assay (IL-4 stimulated eotaxin-3 release); format: cell-based; conditions: IL-4 stimulation, 48 h, values given for compounds with >80% Emax, geometric mean
How it was run: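 Eotaxin-3 (CCL26) release measured by MSD kit in plasma supernatant after 48 h IL-4 stimulation ([…]) of human whole blood. Compounds added in triplicate 4-fold dilutions 2 h before stimulation; 0.5% DMSO final, 37° C, 5% CO2.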

CNc1ccn(-c2ccnc3c2cc(CN2CCC(c4c(F)cc(C(=O)N5CCC(CN6CCN(Cc7cc8c(cc7F)N([C@@H]7CCC(=O)NC7=O)C(=O)C87CC7)CC6)CC5)cc4F)CC2)n3C)c(=O)c1 (single isomer, unassigned) [Example 3u44]
DC50 (STAT6): 10.2 nM | EC50 [1]: 10.1 nM

CNc1ccn(-c2ccnc3c2cc(CN2CCC(c4c(F)cc(C(=O)N5CCC(CN6CCN(Cc7ccc8c(c7)C7(CC7)C(=O)N8[C@@H]7CCC(=O)NC7=O)C[C@@H]6C)CC5)cc4F)CC2)n3C)c(=O)c1 (single isomer, unassigned) [Example 3u224]
DC50 (STAT6): 1.3 nM | EC50 [1]: 1.5 nM

CNc1ccn(-c2ccnc3c2cc([C@H](C)N2CC=C(c4c(C)cc(C(=O)N5CCC(CN6CCN(Cc7cc8c(cc7F)N(C7CCC(=O)NC7=O)C(=O)C8(C)C)C[C@@H]6C)CC5)cc4F)CC2)n3C)c(=O)c1 (stereo partly drawn) [Example 3u181, 3-(6-fluoro-5-(((S)-4-((1-(3-fluoro-5-methyl-4-(1-((S)-1-(1-methyl-4-(4-(methyl-amino)-2-oxopyridin-1 (2H)-yl)-1H-pyrrolo[2,3-b]pyridin-2-yl)ethyl)-1,2,3,6-tetrahydropyridin-4-yl)-benzoyl)piperidin-4-yl)methyl)-3-methylpiperazin-1-yl)methyl)-3,3-dimethyl-2-oxoindolin-1-yl)-piperidine-2,6-dione]
DC50 (STAT6): 3.4 nM | EC50 [1]: 16.3 nM

CNc1cc(=O)n(-c2ccnc3c2cc([C@H](C)N2CC=C(c4c(C)cc(C(=O)N5CCC(CN6CCN(c7ccc8c(c7)C7(CC7)C(=O)N8[C@@H]7CCC(=O)NC7=O)CC6)CC5)cc4F)CC2)n3C)cc1F (single isomer, unassigned) [Example 3u292]
DC50 (STAT6): 5.1 nM | EC50 [1]: 6.9 nM

CNc1cc(=O)n(-c2ccnc3c2cc([C@H](C)N2CC=C(c4c(C)cc(C(=O)N5CCC(CN6CCN(Cc7ccc8c(c7)C7(CC7)C(=O)N8C7CCC(=O)NC7=O)CC6)CC5)cc4F)CC2)n3C)cc1F (stereo partly drawn) [Example 3u66, 3-(5′-((4-((1-(3-fluoro-4-(1-((S)-1-(4-(5-fluoro-4-(methylamino)-2-oxopyridin-1 (2H)-yl)-1-methyl-1H-pyrrolo[2,3-b]pyridin-2-yl)ethyl)-1,2,3,6-tetrahydropyridin-4-yl)-5-methylbenzoyl)-piperidin-4-yl)methyl)piperazin-1-yl)methyl)-2′-oxospiro[cyclopropane-1,3′-indolin]-1′-yl)piperidine-2,6-dione]
DC50 (STAT6): 1.6 nM | EC50 [1]: 4.3 nM

Cc1cc(C(=O)N2CCC(CN3CCN(Cc4ccc5c(c4)n(C)c(=O)n5C4CCC(=O)NC4=O)C[C@@H]3C)CC2)cc(F)c1C1=CCN([C@@H](C)c2cc3c(-n4ccc5c(c4=O)CCN5)ccnc3n2C)CC1 (stereo partly drawn) [Example 3u137, 3-(5-(((S)-4-((1-(3-fluoro-5-methyl-4-(1-((S)-1-(1-methyl-4-(4-oxo-1,2,3,4-tetrahydro-5H-pyrrolo[3,2-c]pyridin-5-yl)-1H-pyrrolo[2,3-b]pyridin-2-yl)ethyl)-1,2,3,6-tetrahydropyridin-4-yl)benzoyl)piperidin-4-yl)methyl)-3-methylpiperazin-1-yl)methyl)-3-methyl-2-oxo-2,3-dihydro-1H-benzo[d]imidazol-1-yl)piperidine-2,6-dione]
DC50 (STAT6): 0.2 nM | EC50 [1]: 0.4 nM

CNc1ccn(-c2ccnc3c2cc(CN2CC=C(c4c(F)cc(C(=O)N5CCC(CN6CCN(Cc7ccc8c(c7)n(C7CC7)c(=O)n8C7CCC(=O)NC7=O)C[C@@H]6C)CC5)cc4F)CC2)n3C)c(=O)c1 (stereo partly drawn) [Example 3u71, 3-(3-cyclopropyl-5-(((S)-4-((1-(3,5-difluoro-4-(1-((1-methyl-4-(4-(methylamino)-2-oxopyridin-1 (2H)-yl)-1H-pyrrolo[2,3-b]pyridin-2-yl)methyl)-1,2,3,6-tetrahydropyridin-4-yl)benzoyl)piperidin-4-yl)methyl)-3-methylpiperazin-1-yl)methyl)-2-oxo-2,3-dihydro-1H-benzo[d]imidazol-1-yl)piperidine-2,6-dione]
DC50 (STAT6): 5.3 nM | EC50 [1]: 1.8 nM

CNc1c(F)cn(-c2ccnc3c2cc(CN2CCC(c4c(F)cc(C(=O)N5CCC(CN6CCN(Cc7ccc8c(c7)C7(CC7)C(=O)N8C7CCC(=O)NC7=O)C[C@@H]6C)CC5)cc4F)CC2)n3C)c(=O)c1F (stereo partly drawn) [Example 3u115, 3-(5′-(((S)-4-((1-(4-(1-((4-(3,5-difluoro-4-(methylamino)-2-oxopyridin-1 (2H)-yl)-1-methyl-1H-pyrrolo[2,3-b]pyridin-2-yl)methyl)piperidin-4-yl)-3,5-difluorobenzoyl)piperidin-4-yl)-methyl)-3-methylpiperazin-1-yl)methyl)-2′-oxospiro[cyclopropane-1,3′-indolin]-1′-yl)piperidine-2,6-dione]
DC50 (STAT6): 8.3 nM | EC50 [1]: 9.1 nM

CNc1cc(=O)n(-c2ccnc3c2cc([C@H](C)N2CC=C(c4c(C)cc(C(=O)N5CCC(CN6CCN(Cc7ccc8c(c7)n(C)c(=O)n8C7CCC(=O)NC7=O)CC6)CC5)cc4F)CC2)n3C)cc1F (stereo partly drawn) [Example 3u13, 3-(5-((4-((1-(3-fluoro-4-(1-((S)-1-(4-(5-fluoro-4-(methylamino)-2-oxopyridin-1 (2H)-yl)-1-methyl-1H-pyrrolo[2,3-b]pyridin-2-yl)ethyl)-1,2,3,6-tetrahydropyridin-4-yl)-5-methylbenzoyl)-piperidin-4-yl)methyl)piperazin-1-yl)methyl)-3-methyl-2-oxo-2,3-dihydro-1H-benzo[d]imidazol-1-yl)piperidine-2,6-dione]
DC50 (STAT6): 0.7 nM | EC50 [1]: 1 nM

CNc1ccn(-c2ccnc3c2cc([C@H](C)N2CCC(c4ccc(C(=O)N5CCC(CN6CCN(Cc7ccc8c(c7)C(C)(C)C(=O)N8[C@@H]7CCC(=O)NC7=O)C[C@@H]6C)CC5)cc4)CC2)n3C)c(=O)c1 (single isomer, unassigned) [Example 3u189]
DC50 (STAT6): 4.7 nM | EC50 [1]: 7.7 nM

CNc1ccn(-c2ccnc3c2cc(CN2CCC(c4c(F)cc(C(=O)N5CCC(CN6CCN(Cc7ccc8c(c7)C(C)(C)C(=O)N8C7CCC(=O)NC7=O)CC6)CC5)cc4F)CC2)n3C)c(=O)c1 (centres unmarked) [Example 3u16, 3-(5-((4-((1-(3,5-difluoro-4-(1-((1-methyl-4-(4-(methylamino)-2-oxopyridin-1 (2H)-yl)-1H-pyrrolo[2,3-b]pyridin-2-yl)methyl)piperidin-4-yl)benzoyl)piperidin-4-yl)methyl)piperazin-1-yl)-methyl)-3,3-dimethyl-2-oxoindolin-1-yl)piperidine-2,6-dione]
DC50 (STAT6): 11.2 nM | EC50 [1]: 12.1 nM

CNc1ccn(-c2ccnc3c2cc([C@H](C)N2CC=C(c4c(C)cc(C(=O)N5CCC(CN6CCN(c7cc8c(cc7F)n([C@H]7CCC(=O)NC7=O)c(=O)n8C)CC6)CC5)cc4F)CC2)n3C)c(=O)c1 (single isomer, unassigned) [Example 3u307]
DC50 (STAT6): 1.4 nM | EC50 [1]: 1.1 nM

CNc1ccn(-c2ccnc3c2cc([C@H](C)N2CC=C(c4c(C)cc(C(=O)N5CCC(CN6CCN(Cc7ccc8c(c7)C7(CC7)C(=O)N8[C@@H]7CCC(=O)NC7=O)C[C@@H]6C)CC5)cc4F)CC2)n3C)c(=O)c1 (single isomer, unassigned) [Example 3u192]
DC50 (STAT6): 0.6 nM | EC50 [1]: 0.9 nM
